In paper PMC11249239 (PLOS ONE, 2024) one finds EC50 data, which are given here for one compound.

The structures appear in SMILES notation.

The subject of this assay is MCF10A normal breast epithelial cells. The assay is described as follows: Cell growth inhibition (CCK8 cytotoxicity assay), MCF10A. In kind it is cell-based. The following applies: Homo sapiens, MCF-10A, 48 h treatment, read-out: Average EC50 ± SD, cell growth inhibition. On the technique in general: Tetrazolium assays rely on reduction of a dye to a coloured formazan, in cell work by metabolically active cells.

In general, EC50 refers to the midpoint of the concentration-response curve. Turning to `O=C(CCCCCCC(=O)Nc1ccccc1)NO` [SAHA, reference compound], the EC50 is 10.1 ± 0.982 µM.
